How the values were obtained:
[1] = molecular target: Integrin alpha-IIb/beta-3 (Homo sapiens); test: Displacement of FITC-Fg from integrin alphaIIbbeta3 receptor expressed in human activated platelets
[2] = tested on: Plasma; test: Inhibition of ADP-induced platelet aggregation in human platelet-rich plasma by Born's method

SMILES | IC50 [1] [nM] | IC50 [2] [nM]
O=C(O)CCNC(=O)c1cc(C(=O)Nc2ccc3c(c2)CNCC3)cc([N+](=O)[O-])c1 | 32 | 2300
COc1ccc(C(CC(=O)O)NC(=O)c2cccc(C(=O)Nc3ccc4c(c3)CNCC4)c2)cc1 (stereo unspecified) | 0.8 | 17
COc1ccc(C(CC(=O)O)NC(=O)c2cc(C(=O)Nc3ccc4c(c3)CNCC4)cc([N+](=O)[O-])c2)cc1 (stereo unspecified) | 5 | 450
O=C(O)CCNC(=O)c1cccc(C(=O)Nc2ccc3c(c2)CNCC3)c1 | 9 | 78
O=C(O)CC(NC(=O)c1cccc(C(=O)Nc2ccc3c(c2)CNCC3)c1)c1ccccc1 (stereo unspecified) | 1 | 25
COc1ccc(C(CC(=O)O)NC(=O)c2cccc(C(=O)Nc3ccc4c(c3)CNCC4)c2)cc1OC (stereo unspecified) | 0.7 | 11.6

Continued by falling IC50 [1], values first:

IC50 [1] [nM] | IC50 [2] [nM] | SMILES
8 | 710 | O=C(O)CC(NC(=O)c1cc(C(=O)Nc2ccc3c(c2)CNCC3)cc([N+](=O)[O-])c1)c1ccccc1 (stereo unspecified)
3.7 | 340 | COc1ccc(C(CC(=O)O)NC(=O)c2cc(C(=O)Nc3ccc4c(c3)CNCC4)cc([N+](=O)[O-])c2)cc1OC (stereo unspecified)
